{"source": "paper PMC12111771", "about": "“Structural Characterization and Bioactivity Evaluation of Selenium-Modified Dihydromyricetin from Vine Tea” (Foods, 2025)", "key": {"α-glucosidase (α-GLU)": {"target": "α-glucosidase (α-GLU)", "assay": "PNPG hydrolysis assay with commercial enzyme, absorbance at […] nm", "assay_type": "biochemical"}, "α-amylase (α-AMY)": {"target": "α-amylase (α-AMY)", "assay": "starch hydrolysis DNS assay with commercial enzyme, absorbance at […] nm", "assay_type": "biochemical"}}}
{"compound": "O=C1c2c(O)cc(O)cc2O[C@H](c2cc(O)c(O)c(O)c2)[C@H]1O", "note": "[DHM, Dihydromyricetin]", "values": [{"measurement": "IC50", "setting": "α-glucosidase (α-GLU)", "result": 96.12, "unit": "µg/mL"}, {"measurement": "IC50", "setting": "α-amylase (α-AMY)", "result": 4614, "unit": "µg/mL"}]}
